Results as given in EP0073758B1, “TREATMENT OF INFLAMMATORY VIRAL INFECTIONS, ACNE, DERMATITIS AND ARTHRITIS CONDITIONS” (priority 1981, dated 1982).

Assays:
solubility in DMSO = format: physicochemical; details: per one milliliter DMSO; maximum solubility not determined
Protocol: Topical applications were prepared for the treatment of the external conditions, deseases and symptoms of arthritis, rheumatism, and rheumatoid arthritis or similar conditions. Phenolphthalein was formulated with a topical carrier of dimethyl sulfoxide (DMSO) to aid in the application of phenolphthalein to, and its absorption into, the affected area for the relief of pain and the treatment of the area. It has been discovered that DMSO is an especially effective solvent for phenolphthalein. As little as one milliliter of liquid DMSO will dissolve two-hundred milligrams of phenolphthalein, or powders containing phenolphthalein. This factor coupled with the known ability of DMSO to penetrate organic tissue are believed to allow smaller dosages of phenolphthalein to be used in both oral and topical applications as well as in preparation of injectable solutions. For example the DMSO/phenol- phthalein solution can be formulated into topical carriers which should enhance the penetration of phenolphthalein into the skin, or ingested.

Herpes Labialis = format: in vivo, patients
Protocol: In an informal clinical study 41 patients with symptoms of Herpes Labialis were treated with oral dosages of phenolphthalein. The patients were treated at different times over a period of about two months. The initial dosage was one hundred milligrams administered every 8 hours for the first day and every 12 hours thereafter. […] Of the 41 patients treated, 39 made complete recovery within two days without any noticeable development of the cold sore. The other two patients made complete recovery with no swelling or visible evidence of the cold sore remaining after three days. A control group of 24 patients with Herpes Labialis history were selected at random from clinical files as a control group. Of the 24 patients, 5 were excluded because of the total absence of early indications of infection. The other 19 patients were treated conventionally over a 10 day period. Only 4 experienced even partial relief from developing cold sores and 15 developed active cold sores and blisters which lasted up to 4 weeks.
The results of this informal study indicate that phenolphthalein is a very effective drug for preventing and arresting the development of cold sores and blisters at the time of initial appearance in patients.

[1] = ingested into the human body; rest excreted in the feces; cited from earlier work
[2] = topical application in acne; format: in vivo; details: 500 milligrams in 57 g of carrier
Excerpt: In preparing topical applications for the treatment of external conditions, such as dermatitis and acne as well as arthritis, rheumatism, and related conditions, it is within the scope of the invention to formulate phenolphthalein with suitable carriers and bases to aid in the application to, or absorption into, the target or affected area. One group of carriers is the oil-based carriers for external application this group includes dimethyl sulfoxide (DMSO), petrolatum, mineral oil, and anhydrous lanolin. In most topical applications the concentration of the phenolphthalein in the carrier may vary widely. […] It is believed that a concentration of at least about 250 milligrams per 28 g of carrier will be effective.

[3] = tested on: Herpes Simplex infections; test: oral dosages administered to victims of Herpes Simplex infections; format: in vivo
[4] = stated as well known; cited from earlier work
[5] = oral dosages against canker sores; format: in vivo

O=C1OC(c2ccc(O)cc2)(c2ccc(O)cc2)c2ccccc21 [phenolphthalein, 3,3 - Bis(p - hydroxyphenyl) - phthalide]
amount dissolved by one milliliter of liquid DMSO (solubility in DMSO): two-hundred
laxative effect (Herpes Labialis; human, in vivo, po): complaints related to the laxative effect
patients who made complete recovery within two days without any noticeable development of the cold sore (Herpes Labialis; of the 41 patients treated, oral, initially one hundred milligrams, later 30 milligrams, every 8 hours first day, every 12 hours thereafter): 39
patients who made complete recovery with no swelling or visible evidence of the cold sore remaining after three days (Herpes Labialis; of the 41 patients treated, same oral regimen): two
follow-up observations: development of Herpes Labialis (Herpes Labialis; the 41 patients treated): no development of Herpes Labialis
active drug in solution absorbed into the blood stream [1]: less than 15%
effect against acne [2]: effective against acne
treatment of Herpes Simplex infections, including cold sores, fever blisters and Herpes Genitalis [3]: successfully administered
solubility in water [4]: highly insoluble in water
relief and cure of canker sores [5]: effective to relieve and cure canker sores within a matter of hours
